Laboratory results reported in ChEMBL document CHEMBL1201862, “PubChem BioAssay data set” (2004).
The source made the active and inactive calls.

Assays:
[1] = Luminescence Cell-Based Dose Retest to Confirm Inhibitors of Cancer Stem Cells. [Related pubchem assays (depositor defined):AID2717, AID2721]; assay type: functional; details: Homo sapiens
[2] = cytotoxicity in HMLE control line with eGFP shRNA, dose response, counter-screen for HMLE_sh_ECad selective toxicity project, cell-based, HMLE_sh_eGFP, luminescence (AID 463074); assay type: functional, Homo sapiens;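 further: HMLE human mammary epithelial cells expressing control shRNA against eGFP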
[3] = system: HEK293; assay: NOD1 signaling inhibitors, primary screen, cell-based, luminescence, uHTS (AID 1578); assay type: functional; details: Homo sapiens
[4] = system: HEK293; assay: cells; assay type: functional, cell-based; details: Homo sapiens
[5] = system: HEK293; assay: cells; assay type: functional, cell-based; details: Homo sapiens; remark: listed apart in the source
[6] = system: HEK293; assay: NOD2 signaling inhibitors in MDP-stimulated cells, cell-based, uHTS, luminescence (AID 2001); assay type: functional; details: Homo sapiens
[7] = biological target: T1, Lysosomal acid glucosylceramidase (Homo sapiens, UniProt P04062); assay: Dose response cell-based high throughput screening assay to identify enhancers of beta-glucosidase activity. [Related pubchem assays: 784 ]; assay type: functional
T1 sequence (P04062 whole entry): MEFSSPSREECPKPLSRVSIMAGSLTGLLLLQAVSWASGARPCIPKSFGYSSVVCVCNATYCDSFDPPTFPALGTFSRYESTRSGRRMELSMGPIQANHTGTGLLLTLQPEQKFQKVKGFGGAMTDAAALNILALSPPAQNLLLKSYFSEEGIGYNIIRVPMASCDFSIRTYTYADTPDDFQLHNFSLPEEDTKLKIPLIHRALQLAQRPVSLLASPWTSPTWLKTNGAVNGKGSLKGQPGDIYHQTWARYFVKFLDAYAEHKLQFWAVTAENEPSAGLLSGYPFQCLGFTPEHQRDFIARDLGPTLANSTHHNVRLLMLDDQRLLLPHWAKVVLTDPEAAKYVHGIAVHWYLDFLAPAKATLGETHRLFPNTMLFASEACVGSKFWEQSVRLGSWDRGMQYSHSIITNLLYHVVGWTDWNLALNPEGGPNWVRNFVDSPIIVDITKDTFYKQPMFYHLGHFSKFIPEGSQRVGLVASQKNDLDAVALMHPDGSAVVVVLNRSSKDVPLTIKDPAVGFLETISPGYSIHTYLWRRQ

[8] = biological target: T2, Coagulation factor XII (Homo sapiens, UniProt P00748); assay type: functional;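 further: activated factor XIIa alpha cleaving a fluorogenic AMC peptide substrate; inhibitor potency from loss of enzyme activity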
T2 sequence (P00748 whole entry): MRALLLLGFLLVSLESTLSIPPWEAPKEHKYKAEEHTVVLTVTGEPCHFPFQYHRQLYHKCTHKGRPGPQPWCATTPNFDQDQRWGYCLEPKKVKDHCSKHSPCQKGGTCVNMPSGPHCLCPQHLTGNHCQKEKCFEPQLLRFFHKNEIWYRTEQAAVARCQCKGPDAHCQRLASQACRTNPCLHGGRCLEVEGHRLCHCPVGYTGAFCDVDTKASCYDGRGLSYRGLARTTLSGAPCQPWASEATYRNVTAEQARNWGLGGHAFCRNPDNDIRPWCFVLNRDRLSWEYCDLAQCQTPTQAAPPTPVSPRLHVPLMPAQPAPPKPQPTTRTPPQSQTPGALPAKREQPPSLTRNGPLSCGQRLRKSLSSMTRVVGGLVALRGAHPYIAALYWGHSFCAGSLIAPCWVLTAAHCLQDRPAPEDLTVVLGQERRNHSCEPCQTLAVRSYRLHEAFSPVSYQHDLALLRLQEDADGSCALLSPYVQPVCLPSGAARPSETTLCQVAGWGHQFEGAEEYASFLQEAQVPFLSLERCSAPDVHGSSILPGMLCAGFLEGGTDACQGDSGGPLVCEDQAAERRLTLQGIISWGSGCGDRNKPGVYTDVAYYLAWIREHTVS

[9] = biological target: Large T antigen (Simian virus 40, UniProt P03070); assay type: functional, Betapolyomavirus macacae;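 further: Confirmatory-stage PubChem screen for compounds that inhibit SV40 T antigen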
[10] = biological target: 26S proteasome non-ATPase regulatory subunit 14 (Homo sapiens, UniProt O00487); assay: inhibition of proteasome subunit RPN11 – biochemical, fluorescence polarization, uHTS hits, confirmation (AID 602368); assay type: functional
26S proteasome non-ATPase regulatory subunit 14, sequence (O00487 whole entry): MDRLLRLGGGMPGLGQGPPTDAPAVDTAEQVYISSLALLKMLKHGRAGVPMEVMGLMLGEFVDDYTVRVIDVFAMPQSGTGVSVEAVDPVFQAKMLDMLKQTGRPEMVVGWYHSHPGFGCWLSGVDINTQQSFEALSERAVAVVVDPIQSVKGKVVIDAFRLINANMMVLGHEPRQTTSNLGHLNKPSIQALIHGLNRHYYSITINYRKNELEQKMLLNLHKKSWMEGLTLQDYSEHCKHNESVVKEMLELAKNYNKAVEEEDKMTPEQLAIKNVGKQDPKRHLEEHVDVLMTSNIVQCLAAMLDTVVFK

[11] = biological target: 72 kDa type IV collagenase (Homo sapiens, UniProt P08253); assay: Dose Response validation of uHTS RPN11 inhibitor hits using a MMP-2 Fluorescence assay.; assay type: functional
72 kDa type IV collagenase, sequence (P08253 whole entry): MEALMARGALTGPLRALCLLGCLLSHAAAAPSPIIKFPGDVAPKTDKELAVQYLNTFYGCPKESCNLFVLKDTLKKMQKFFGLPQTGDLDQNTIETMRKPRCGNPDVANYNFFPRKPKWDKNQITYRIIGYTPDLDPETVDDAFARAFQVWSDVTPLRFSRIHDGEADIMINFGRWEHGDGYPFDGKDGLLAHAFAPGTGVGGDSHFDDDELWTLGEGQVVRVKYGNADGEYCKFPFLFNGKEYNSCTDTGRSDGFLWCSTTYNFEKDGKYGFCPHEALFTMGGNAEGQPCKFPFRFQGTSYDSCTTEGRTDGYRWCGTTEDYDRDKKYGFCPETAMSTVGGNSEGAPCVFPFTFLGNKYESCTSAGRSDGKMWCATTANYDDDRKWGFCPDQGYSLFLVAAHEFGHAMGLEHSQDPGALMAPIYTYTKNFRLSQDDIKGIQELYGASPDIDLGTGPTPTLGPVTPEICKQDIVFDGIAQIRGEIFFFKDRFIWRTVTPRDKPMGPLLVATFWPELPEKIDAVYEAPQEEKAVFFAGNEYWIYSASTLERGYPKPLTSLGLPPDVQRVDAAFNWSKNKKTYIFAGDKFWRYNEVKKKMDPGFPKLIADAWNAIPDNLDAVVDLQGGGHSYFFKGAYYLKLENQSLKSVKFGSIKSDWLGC

[12] = biological target: Prothrombin (Bos taurus, UniProt P00735); assay: thrombin inhibition, dose response, biochemical, fluorescence polarization, uHTS hits (AID 602369); assay type: functional
[13] = biological target: Peroxisome proliferator-activated receptor gamma/Nuclear receptor coactivator 1 (Homo sapiens, UniProt P37231); assay: (§1) TR-FRET dose response biochemical High Throughput Screening assay for agonists of the steroid receptor coactivator 1 (SRC-1) recruitment by the peroxisome proliferator-activated receptor gamma (PPAR gamma): non-selective agonists. [Related pubchem assays (depositor defined):AID1300, AID1808, AID504735, AID631]; assay type: protein assay
Peroxisome proliferator-activated receptor gamma/Nuclear receptor coactivator 1, sequence (P37231 whole entry): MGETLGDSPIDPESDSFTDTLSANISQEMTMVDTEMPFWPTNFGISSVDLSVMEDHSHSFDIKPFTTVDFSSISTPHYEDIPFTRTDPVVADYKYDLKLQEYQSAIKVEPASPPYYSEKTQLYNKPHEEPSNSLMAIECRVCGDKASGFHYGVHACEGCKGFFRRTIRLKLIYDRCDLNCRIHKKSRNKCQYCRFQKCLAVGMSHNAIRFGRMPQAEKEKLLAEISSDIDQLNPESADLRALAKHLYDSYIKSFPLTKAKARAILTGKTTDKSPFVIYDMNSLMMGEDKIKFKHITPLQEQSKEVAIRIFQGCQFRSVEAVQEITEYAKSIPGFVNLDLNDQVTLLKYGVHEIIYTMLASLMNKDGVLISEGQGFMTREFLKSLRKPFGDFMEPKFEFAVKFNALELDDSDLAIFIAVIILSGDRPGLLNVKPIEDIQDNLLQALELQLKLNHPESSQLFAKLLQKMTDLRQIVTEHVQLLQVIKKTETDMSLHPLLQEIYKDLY
Peroxisome proliferator-activated receptor gamma/Nuclear receptor coactivator 1, sequence (Q15788 whole entry, further chain): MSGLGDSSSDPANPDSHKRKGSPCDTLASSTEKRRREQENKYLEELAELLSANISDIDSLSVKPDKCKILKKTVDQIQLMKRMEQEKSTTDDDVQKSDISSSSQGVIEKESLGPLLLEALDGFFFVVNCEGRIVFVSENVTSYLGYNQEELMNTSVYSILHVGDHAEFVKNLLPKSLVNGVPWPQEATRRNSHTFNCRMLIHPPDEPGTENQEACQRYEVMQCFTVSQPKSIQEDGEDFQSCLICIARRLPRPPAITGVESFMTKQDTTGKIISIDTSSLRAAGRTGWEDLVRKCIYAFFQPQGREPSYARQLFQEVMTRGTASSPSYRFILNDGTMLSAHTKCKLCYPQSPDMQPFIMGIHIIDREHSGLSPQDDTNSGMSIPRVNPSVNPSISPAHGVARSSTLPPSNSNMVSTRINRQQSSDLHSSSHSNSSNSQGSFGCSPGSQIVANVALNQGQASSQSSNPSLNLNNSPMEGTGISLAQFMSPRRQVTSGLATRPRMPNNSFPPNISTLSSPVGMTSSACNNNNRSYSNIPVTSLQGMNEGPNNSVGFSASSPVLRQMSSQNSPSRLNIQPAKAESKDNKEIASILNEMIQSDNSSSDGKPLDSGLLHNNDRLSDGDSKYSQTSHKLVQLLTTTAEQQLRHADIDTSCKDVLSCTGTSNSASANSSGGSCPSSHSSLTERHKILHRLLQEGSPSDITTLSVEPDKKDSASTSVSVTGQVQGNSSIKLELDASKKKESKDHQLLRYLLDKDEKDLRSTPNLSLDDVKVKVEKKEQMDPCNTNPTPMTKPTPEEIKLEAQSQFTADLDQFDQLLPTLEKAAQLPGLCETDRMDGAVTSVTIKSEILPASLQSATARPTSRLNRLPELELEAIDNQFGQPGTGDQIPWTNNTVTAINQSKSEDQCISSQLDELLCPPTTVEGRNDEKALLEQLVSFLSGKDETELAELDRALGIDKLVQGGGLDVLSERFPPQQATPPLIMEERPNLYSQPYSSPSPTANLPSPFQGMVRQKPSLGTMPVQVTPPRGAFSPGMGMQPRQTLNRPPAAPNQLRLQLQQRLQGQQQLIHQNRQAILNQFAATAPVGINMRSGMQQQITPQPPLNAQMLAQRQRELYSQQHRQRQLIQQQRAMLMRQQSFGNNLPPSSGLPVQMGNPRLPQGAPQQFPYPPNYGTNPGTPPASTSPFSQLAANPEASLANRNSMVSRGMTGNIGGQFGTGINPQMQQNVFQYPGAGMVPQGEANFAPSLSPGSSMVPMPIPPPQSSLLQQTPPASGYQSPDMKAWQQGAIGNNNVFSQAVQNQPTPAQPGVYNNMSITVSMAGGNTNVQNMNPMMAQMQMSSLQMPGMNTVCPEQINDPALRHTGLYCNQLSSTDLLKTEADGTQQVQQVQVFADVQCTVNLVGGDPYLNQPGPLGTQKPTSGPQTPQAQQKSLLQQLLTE

[14] = biological target: Peroxisome proliferator-activated receptor gamma/Nuclear receptor coactivator 3 (Homo sapiens, UniProt P37231); assay: as §1, with “3 (SRC-3)” for “1 (SRC-1)”, “assays: 1301 (Confirmation screen.), 1048 (Primary screen.)]” for “assays (depositor defined):AID1300, AID1808, AID504735, AID631]”; assay type: functional
Peroxisome proliferator-activated receptor gamma/Nuclear receptor coactivator 3, sequence (P37231 whole entry): as the sequence (P37231 whole entry) above
Peroxisome proliferator-activated receptor gamma/Nuclear receptor coactivator 3, sequence (Q9Y6Q9 whole entry, further chain): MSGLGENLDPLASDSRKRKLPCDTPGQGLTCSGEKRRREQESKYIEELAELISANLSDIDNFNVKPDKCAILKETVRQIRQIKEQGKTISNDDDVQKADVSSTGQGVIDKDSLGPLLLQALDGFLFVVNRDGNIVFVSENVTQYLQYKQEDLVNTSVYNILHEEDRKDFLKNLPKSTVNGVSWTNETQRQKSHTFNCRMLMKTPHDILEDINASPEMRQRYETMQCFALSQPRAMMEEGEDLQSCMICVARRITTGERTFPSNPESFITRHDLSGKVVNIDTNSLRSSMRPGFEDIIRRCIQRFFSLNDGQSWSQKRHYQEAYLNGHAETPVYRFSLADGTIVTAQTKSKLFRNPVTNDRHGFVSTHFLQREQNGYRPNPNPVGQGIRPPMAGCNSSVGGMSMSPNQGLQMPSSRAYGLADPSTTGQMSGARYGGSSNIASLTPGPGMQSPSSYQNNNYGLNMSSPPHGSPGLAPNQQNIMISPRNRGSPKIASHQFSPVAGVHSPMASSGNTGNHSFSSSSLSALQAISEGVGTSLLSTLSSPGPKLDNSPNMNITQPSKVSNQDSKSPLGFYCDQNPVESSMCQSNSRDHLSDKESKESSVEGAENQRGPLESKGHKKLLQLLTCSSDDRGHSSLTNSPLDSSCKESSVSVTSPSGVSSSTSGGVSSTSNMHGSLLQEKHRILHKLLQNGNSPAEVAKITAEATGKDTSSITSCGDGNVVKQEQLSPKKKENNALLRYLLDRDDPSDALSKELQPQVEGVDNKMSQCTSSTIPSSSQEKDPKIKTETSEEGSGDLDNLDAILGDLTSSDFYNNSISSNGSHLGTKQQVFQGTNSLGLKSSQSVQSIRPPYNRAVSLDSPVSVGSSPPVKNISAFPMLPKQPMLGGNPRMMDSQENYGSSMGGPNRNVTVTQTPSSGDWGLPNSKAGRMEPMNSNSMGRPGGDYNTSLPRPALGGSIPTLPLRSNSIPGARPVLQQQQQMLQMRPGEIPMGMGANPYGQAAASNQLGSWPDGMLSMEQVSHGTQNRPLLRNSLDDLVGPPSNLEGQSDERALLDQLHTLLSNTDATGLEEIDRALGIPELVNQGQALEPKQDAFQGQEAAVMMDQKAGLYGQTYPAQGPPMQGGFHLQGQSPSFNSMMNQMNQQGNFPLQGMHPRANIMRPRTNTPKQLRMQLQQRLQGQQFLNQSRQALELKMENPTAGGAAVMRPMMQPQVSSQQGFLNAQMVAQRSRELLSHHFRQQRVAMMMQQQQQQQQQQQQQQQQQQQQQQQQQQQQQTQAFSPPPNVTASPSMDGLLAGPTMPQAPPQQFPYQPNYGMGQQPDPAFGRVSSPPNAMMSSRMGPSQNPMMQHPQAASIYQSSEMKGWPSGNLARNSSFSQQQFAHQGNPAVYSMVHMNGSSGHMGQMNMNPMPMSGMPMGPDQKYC

[15] = biological target: Peroxisome proliferator-activated receptor gamma/Nuclear receptor coactivator 2 (Homo sapiens, UniProt P37231); assay: TR-FRET dose response biochemical High Throughput Screening assay for agonists of the steroid receptor coactivator 2 (SRC-2) recruitment by the peroxisome proliferator-activated receptor gamma (PPAR gamma): non-selective agonists. [Related pubchem assays: 1297, 1032 ]; assay type: functional
[16] = system: BJ; assay: cytotoxicity toward BJ-TERT fibroblasts, dose response, cell-based, RAS-independent, luminescence (AID 1933); assay type: functional; details: Homo sapiens
[17] = system: BJ; assay: cells; assay type: functional, cell-based; details: Homo sapiens
[18] = system: BJ; assay: cytotoxicity toward BJ-TERT-LT-ST fibroblasts, dose response, cell-based, RAS-independent, luminescence (AID 1935); assay type: functional; details: Homo sapiens;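 further: BJ fibroblasts immortalized with TERT plus LT and ST oncogenes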
[19] = cytotoxicity toward DRD oncogenic fibroblasts, dose response, cell-based, non-viral oncogenic, luminescence (AID 1934); assay type: functional; details: Homo sapiens
[20] = system: BJ; assay: cytotoxicity toward Ras-transformed BJeLR fibroblasts, dose response, cell-based, alamar blue fluorescence, cherrypicked samples (AID 2631); assay type: functional; details: Homo sapiens;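 further: confirmatory dose-response assay in RAS-dependent BJ fibroblasts engineered with TERT, LT and ST, with cytotoxicity read by fluorescence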
[21] = system: INS1; assay: beta cell apoptosis inhibitors, cytokine rescue, dose response, luminescence, retest (AID 449756); assay type: functional, cell-based; details: Rattus norvegicus;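 further: cell death triggered by IL-1 beta plus TNF-alpha plus IFN-gamma mixture; protective hits raise ATP signal compared with cytokine alone wells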
[22] = biological target: T3, Adenosylmethionine-8-amino-7-oxononanoate aminotransferase (Mycobacterium tuberculosis, UniProt P9WQ81); assay: Mycobacterium tuberculosis BioA enzyme inhibitor Measured in Biochemical System Using Plate Reader - 2163-02_Inhibitor_Dose_CherryPick_Activity.; assay type: functional, Mycobacterium tuberculosis UT205
T3 sequence (P9WQ81 whole entry): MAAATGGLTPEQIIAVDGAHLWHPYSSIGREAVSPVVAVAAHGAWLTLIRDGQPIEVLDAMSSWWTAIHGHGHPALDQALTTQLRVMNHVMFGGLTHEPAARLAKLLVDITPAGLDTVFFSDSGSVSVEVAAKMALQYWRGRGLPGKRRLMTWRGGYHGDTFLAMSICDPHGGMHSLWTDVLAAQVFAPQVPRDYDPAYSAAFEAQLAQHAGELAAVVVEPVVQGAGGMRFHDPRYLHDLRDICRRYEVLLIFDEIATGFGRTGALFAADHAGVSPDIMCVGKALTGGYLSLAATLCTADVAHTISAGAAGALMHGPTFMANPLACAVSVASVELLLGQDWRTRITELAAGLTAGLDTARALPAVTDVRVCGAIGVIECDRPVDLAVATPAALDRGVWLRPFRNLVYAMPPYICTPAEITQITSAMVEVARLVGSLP

## O=C(NNc1nc(-c2ccc(Cl)cc2)cs1)c1ccco1
[1]
  AC50: 1.8 µM (active)
[2]
  AC50: 87.8 µM (active)

## CN(c1ccccc1)S(=O)(=O)c1cc(C(=O)Nc2nc3ccccc3[nH]2)ccc1Cl
[3]
  EC50: 8.46 µM (active)
[4]
  IC50: 5.37 µM (active)
[5]
  IC50: > 20 µM (inactive)
[6]
  IC50: 6.72 µM (active)

## CCn1c(SCC(=O)N2CCN(c3ccccc3)CC2)nnc1-c1cc2cc(Cl)ccc2o1
[7]
  EC50: > 50 µM (not active)
[8]
  IC50: > 50 µM (inactive)

## COc1ccc(-n2c(/C=C/c3ccc(O)c(O)c3)nc3ccccc3c2=O)cc1
[9]
  IC50: 55.9 µM (active)
[10]
  IC50: 9.05 µM (active)
[11]
  IC50: > 100 µM (inactive)
[12]
  IC50: 6.49 µM (active)

## COc1ccc(-c2cc(C(=O)c3c(N)n(C)c(=O)n(C)c3=O)c3ccccc3n2)cc1OC
[8]
  IC50: > 50 µM (inactive)

## Cc1cc(C)cc(NC(=O)Cn2nnc(C(=O)NCc3ccc4c(c3)OCO4)c2N)c1
[10]
  IC50: 22.9 µM (active)
[11]
  IC50: > 100 µM (inactive)
[12]
  IC50: 72.2 µM (active)

## c1ccc(-c2nnsc2-c2nc3ccccc3[nH]2)cc1
[13]
  EC50: 10.8 µM (inactive)
[14]
  EC50: 83.6 µM (not active)
[15]
  EC50: 10.3 µM (not active)

## O=C(NCCCn1ccnc1)c1ccc(N2CCCCCC2)c([N+](=O)[O-])c1
[16]
  EC50: > 150 µM (not active)
[17]
  EC50: 7.97 µM (active)
[18]
  EC50: 11.4 µM (active)
[19]
  EC50: 25.6 µM (active)
[20]
  EC50: 3.55 µM (active)
[21]
  AC50: 6.67 µM (active)

## CC1=CC2=NC(=O)/C(=C\c3cc(C)n(-c4ccccc4F)c3C)C(=N)N2O1
[22]
  AC50: 0.247 µM (active)

## O=C(Nc1nc2c(s1)CN(Cc1ccccc1)CC2)c1cccc(S(=O)(=O)N2CCc3ccccc32)c1
[13]
  EC50: 10.8 µM (inactive)
[14]
  EC50: 28 µM (not active)
[15]
  EC50: 14.8 µM (not active)

## CC1=C(C(=O)Nc2ccccc2)C(c2ccco2)C(C#N)=C(SCc2ccccc2)N1 (stereo unspecified)
[1]
  AC50: 17.5 µM (active)
[2]
  AC50: 28.4 µM (active)
